Laboratory results as given in article PMC5218480 (PLoS ONE, 2017).

Test system: MV-4-11 cells
Experiment: Gene expression microarray analysis (Affymetrix PrimeView) and GSEA
Format: cell-based, human
Parameters: RFU PODN (11730768_x_at) / Fold change /veh PODN (11730768_x_at) / RFU LINC00158 (11744669_a_at) / Fold change /veh LINC00158 (11744669_a_at) / RFU DUSP10 (11751237_a_at) / Fold change /veh DUSP10 (11751237_a_at) / RFU ID3 (11757404_x_at) / Fold change /veh ID3 (11757404_x_at) / RFU PLEKHG5 (11737974_s_at) / Fold change /veh PLEKHG5 (11737974_s_at) / RFU LRRC4B (11730491_at) / Fold change /veh LRRC4B (11730491_at) / RFU GIMAP4 (11747438_a_at) / Fold change /veh GIMAP4 (11747438_a_at) / RFU KRT8 (11758183_x_at) / Fold change /veh KRT8 (11758183_x_at) / RFU CNN1 (11734310_a_at) / Fold change /veh CNN1 (11734310_a_at) / RFU VPS37D (11726825_at) / Fold change /veh VPS37D (11726825_at) / RFU C10orf10 (11716522_x_at) / Fold change /veh C10orf10 (11716522_x_at) / RFU KIR2DL2 /// KIR2DL4 /// KIR2DL5A /// KIR2DL5B /// KIR2DS1 /// KIR2DS2 /// KIR2DS3 /// KIR2DS4 /// KIR3DL3 /// KIR3DL3 /// KIR3DS1 (11738374_at) / Fold change /veh KIR2DL2 /// KIR2DL4 /// KIR2DL5A /// KIR2DL5B /// KIR2DS1 /// KIR2DS2 /// KIR2DS3 /// KIR2DS4 /// KIR3DL3 /// KIR3DL3 /// KIR3DS1 (11738374_at) / RFU C1QL1 (11718748_at) / Fold change /veh C1QL1 (11718748_at) / RFU TMPRSS4 (11747572_a_at) / Fold change /veh TMPRSS4 (11747572_a_at) / RFU HAMP (11756126_x_at) / Fold change /veh HAMP (11756126_x_at) / RFU RNFT2 (11725882_a_at) / Fold change /veh RNFT2 (11725882_a_at) / RFU NR4A2 (11747474_a_at) / Fold change /veh NR4A2 (11747474_a_at) / RFU ABCC12 (11746883_a_at) / Fold change /veh ABCC12 (11746883_a_at) / RFU TMEM136 (11760407_x_at) / Fold change /veh TMEM136 (11760407_x_at) / RFU CLDN22 /// WWC2 (11732394_at) / Fold change /veh CLDN22 /// WWC2 (11732394_at) / RFU HLA-DPB1 (11760878_x_at) / Fold change /veh HLA-DPB1 (11760878_x_at) / RFU SPINT1 (11716480_a_at) / Fold change /veh SPINT1 (11716480_a_at) / RFU GAP43 (11754022_s_at) / Fold change /veh GAP43 (11754022_s_at) / RFU A4GNT (11735810_at) / Fold change /veh A4GNT (11735810_at) / RFU PRB3 (11715151_x_at) / Fold change /veh PRB3 (11715151_x_at) / RFU TUBB4B (11761932_at) / Fold change /veh TUBB4B (11761932_at) / RFU CAPN14 (11732068_a_at) / Fold change /veh CAPN14 (11732068_a_at) / RFU TMCC2 (11721928_a_at) / Fold change /veh TMCC2 (11721928_a_at) / RFU IRGQ (11745062_a_at) / Fold change /veh IRGQ (11745062_a_at) / RFU FAM174B (11720279_a_at) / Fold change /veh FAM174B (11720279_a_at) / RFU TMPRSS4 (11748680_a_at) / Fold change /veh TMPRSS4 (11748680_a_at) / RFU FAM212B (11763350_a_at) / Fold change /veh FAM212B (11763350_a_at) / RFU PLEKHG5 (11743358_a_at) / Fold change /veh PLEKHG5 (11743358_a_at) / RFU ZSCAN30 (11745921_a_at) / Fold change /veh ZSCAN30 (11745921_a_at) / RFU CMKLR1 (11741424_a_at) / Fold change /veh CMKLR1 (11741424_a_at) / RFU LOC101060620 /// MAPK8IP1 (11723275_at) / Fold change /veh LOC101060620 /// MAPK8IP1 (11723275_at) / RFU SPTSSB (11747773_x_at) / Fold change /veh SPTSSB (11747773_x_at) / RFU PRSS12 (11739890_at) / Fold change /veh PRSS12 (11739890_at) / RFU BIN1 (11741810_x_at) / Fold change /veh BIN1 (11741810_x_at) / RFU WNT11 (11732464_a_at) / Fold change /veh WNT11 (11732464_a_at) / RFU C10orf10 (11716521_a_at) / Fold change /veh C10orf10 (11716521_a_at) / RFU C5orf56 (11738089_at) / Fold change /veh C5orf56 (11738089_at) / RFU CYB561 (11721691_x_at) / Fold change /veh CYB561 (11721691_x_at) / RFU ANKRD19P (11752326_a_at) / Fold change /veh ANKRD19P (11752326_a_at) / RFU OR2T12 /// OR2T33 /// OR2T8 (11738714_s_at) / Fold change /veh OR2T12 /// OR2T33 /// OR2T8 (11738714_s_at) / RFU VCAN (11748164_a_at) / Fold change /veh VCAN (11748164_a_at) / RFU JSRP1 (11732532_at) / Fold change /veh JSRP1 (11732532_at) / RFU KRTAP10-11 (11738290_x_at) / Fold change /veh KRTAP10-11 (11738290_x_at) / RFU MYO3A (11730013_a_at) / Fold change /veh MYO3A (11730013_a_at) / RFU EBF3 (11725865_a_at) / Fold change /veh EBF3 (11725865_a_at) / RFU CAMK2N1 (11719241_x_at) / Fold change /veh CAMK2N1 (11719241_x_at) / RFU C5orf56 (11738088_a_at) / Fold change /veh C5orf56 (11738088_a_at) / RFU OLFML3 (11715873_a_at) / Fold change /veh OLFML3 (11715873_a_at) / RFU LOC100653217 /// NTM (11731650_a_at) / Fold change /veh LOC100653217 /// NTM (11731650_a_at) / RFU MAPK11 (11762145_a_at) / Fold change /veh MAPK11 (11762145_a_at) / RFU FIZ1 (11724087_x_at) / Fold change /veh FIZ1 (11724087_x_at) / RFU OASL (11726364_x_at) / Fold change /veh OASL (11726364_x_at) / RFU SOX15 (11748057_x_at) / Fold change /veh SOX15 (11748057_x_at) / RFU CD79A (11719716_a_at) / Fold change /veh CD79A (11719716_a_at) / RFU HIST1H1D (11736915_at) / Fold change /veh HIST1H1D (11736915_at) / RFU CASKIN2 (11723855_a_at) / Fold change /veh CASKIN2 (11723855_a_at) / RFU LOC730098 (11760151_x_at) / Fold change /veh LOC730098 (11760151_x_at) / RFU OR4N2 (11742367_at) / Fold change /veh OR4N2 (11742367_at) / RFU PRRT2 (11749266_a_at) / Fold change /veh PRRT2 (11749266_a_at) / RFU SNX32 (11753110_a_at) / Fold change /veh SNX32 (11753110_a_at) / RFU CDHR5 (11726645_a_at) / Fold change /veh CDHR5 (11726645_a_at) / RFU RCAN1 (11760418_a_at) / Fold change /veh RCAN1 (11760418_a_at) / RFU FAM167A (11723789_a_at) / Fold change /veh FAM167A (11723789_a_at) / RFU FAM26E (11764081_at) / Fold change /veh FAM26E (11764081_at) / RFU ISYNA1 (11749810_s_at) / Fold change /veh ISYNA1 (11749810_s_at) / RFU ACY1 (11761880_at) / Fold change /veh ACY1 (11761880_at) / RFU 11764098_at / Fold change /veh 11764098_at / RFU SAMD14 (11745864_x_at) / Fold change /veh SAMD14 (11745864_x_at) / RFU NPB (11741838_a_at) / Fold change /veh NPB (11741838_a_at) / RFU TMPRSS6 (11731388_a_at) / Fold change /veh TMPRSS6 (11731388_a_at) / RFU KRTAP10-2 (11738614_at) / Fold change /veh KRTAP10-2 (11738614_at) / RFU ARHGAP8 /// PRR5-ARHGAP8 (11727945_x_at) / Fold change /veh ARHGAP8 /// PRR5-ARHGAP8 (11727945_x_at) / RFU KRTAP5-7 /// NADSYN1 (11734609_at) / Fold change /veh KRTAP5-7 /// NADSYN1 (11734609_at) / RFU RASL12 (11751679_a_at) / Fold change /veh RASL12 (11751679_a_at) / RFU CDKN2B (11736163_a_at) / Fold change /veh CDKN2B (11736163_a_at) / RFU PRF1 (11729649_at) / Fold change /veh PRF1 (11729649_at) / RFU, ZNF638 /// ZNF638-IT1 / Fold change vs veh, ZNF638 /// ZNF638-IT1 / RFU, PANK3 / Fold change vs veh, PANK3 / RFU, SH3YL1 / Fold change vs veh, SH3YL1 / RFU, ZEB2 / Fold change vs veh, ZEB2 / RFU, NRIP1 / Fold change vs veh, NRIP1 / RFU, PTTG1IP / Fold change vs veh, PTTG1IP / RFU, CAPN2 / Fold change vs veh, CAPN2 / RFU, MED14 / Fold change vs veh, MED14 / RFU, SNORA58 / Fold change vs veh, SNORA58 / RFU, C1orf63 / Fold change vs veh, C1orf63 / RFU, LRRFIP1 / Fold change vs veh, LRRFIP1 / RFU, NDUFAF7 / Fold change vs veh, NDUFAF7 / RFU, SLC12A2 / Fold change vs veh, SLC12A2 / RFU, IBTK / Fold change vs veh, IBTK / RFU, ESF1 / Fold change vs veh, ESF1 / Fold change vs veh, TMEM50B / RFU, TAOK1 / Fold change vs veh, TAOK1 / RFU, ACBD3 / Fold change vs veh, ACBD3 / RFU, TMA16 / Fold change vs veh, TMA16 / RFU, RWDD3 / Fold change vs veh, RWDD3 / RFU, BCAT1 / Fold change vs veh, BCAT1 / RFU, EDEM3 / Fold change vs veh, EDEM3 / RFU, TMEM33 / Fold change vs veh, TMEM33 / RFU, WDR75 / Fold change vs veh, WDR75 / RFU, AHCTF1 / Fold change vs veh, AHCTF1 / RFU, TFRC / Fold change vs veh, TFRC / RFU, ZDHHC17 / Fold change vs veh, ZDHHC17 / RFU, NOM1 / Fold change vs veh, NOM1 / RFU, ARL8B / Fold change vs veh, ARL8B / RFU, ZBTB11 / Fold change vs veh, ZBTB11 / RFU, TAMM41 / Fold change vs veh, TAMM41 / RFU, KIAA1704 /// LOC100996395 / Fold change vs veh, KIAA1704 /// LOC100996395 / RFU, ING1 / Fold change vs veh, ING1 / RFU, TRMT61B / Fold change vs veh, TRMT61B / RFU, FUBP3 / Fold change vs veh, FUBP3 / RFU, TP53 / Fold change vs veh, TP53 / RFU, TNKS2 / Fold change vs veh, TNKS2 / RFU, ZFP14 / Fold change vs veh, ZFP14 / RFU, ACTR2 / Fold change vs veh, ACTR2 / RFU, PPP3R1 / Fold change vs veh, PPP3R1 / RFU, PIK3R1 / Fold change vs veh, PIK3R1 / RFU, HNRNPA1 / Fold change vs veh, HNRNPA1 / RFU, RNF170 / Fold change vs veh, RNF170 / RFU, ZNF28 / Fold change vs veh, ZNF28 / RFU, RNGTT / Fold change vs veh, RNGTT / RFU, OGT / Fold change vs veh, OGT / RFU, BRD1 / Fold change vs veh, BRD1 / RFU, MARS / Fold change vs veh, MARS / RFU, ZNF655 / Fold change vs veh, ZNF655 / RFU, FAHD1 / Fold change vs veh, FAHD1 / RFU, BDP1 / Fold change vs veh, BDP1 / RFU, LRRCC1 / Fold change vs veh, LRRCC1 / RFU, ARID1A / Fold change vs veh, ARID1A / RFU, ZNF146 / Fold change vs veh, ZNF146 / RFU, ZNF330 / Fold change vs veh, ZNF330 / RFU, GPN3 / Fold change vs veh, GPN3 / RFU, C9orf123 / Fold change vs veh, C9orf123 / RFU, N4BP2L2 / Fold change vs veh, N4BP2L2 / RFU, ARFIP1 / Fold change vs veh, ARFIP1 / RFU, FAM179B / Fold change vs veh, FAM179B / RFU, BCL10 / Fold change vs veh, BCL10 / RFU, UHRF1BP1L / Fold change vs veh, UHRF1BP1L / RFU, BET1 / Fold change vs veh, BET1 / RFU, CNOT2 / Fold change vs veh, CNOT2 / RFU, ZNF268 / Fold change vs veh, ZNF268 / Fold change vs veh, ZNF507 / RFU, DGCR2 / Fold change vs veh, DGCR2 / RFU, WDSUB1 / Fold change vs veh, WDSUB1 / Fold change vs veh, HSP90B1 /// MIR3652 / RFU, ADSS / Fold change vs veh, ADSS / RFU, GK / Fold change vs veh, GK / RFU, ZNF148 / Fold change vs veh, ZNF148 / RFU, TAF9 / Fold change vs veh, TAF9 / RFU, SLC1A5 / Fold change vs veh, SLC1A5 / RFU, SLMO2 / Fold change vs veh, SLMO2 / RFU, ABCC4 / Fold change vs veh, ABCC4 / RFU, LOC101060439 /// RAP1B / Fold change vs veh, LOC101060439 /// RAP1B / RFU, RFX7 / Fold change vs veh, RFX7 / RFU, GTPBP10 / Fold change vs veh, GTPBP10 / RFU, CNEP1R1 / Fold change vs veh, CNEP1R1 / RFU, BIVM-ERCC5 /// ERCC5 / Fold change vs veh, BIVM-ERCC5 /// ERCC5 / RFU, ILF3 / Fold change vs veh, ILF3 / RFU 11762660_at / Fold change /veh 11762660_at / RFU VCAN (11757783_s_at) / Fold change /veh VCAN (11757783_s_at) / RFU DDX43 (11728927_at) / Fold change /veh DDX43 (11728927_at) / RFU KRT8 (11758188_x_at) / Fold change /veh KRT8 (11758188_x_at) / RFU NKD1 (11759106_at) / Fold change /veh NKD1 (11759106_at) / RFU SRD5A1 (11742802_a_at) / Fold change /veh SRD5A1 (11742802_a_at) / RFU TPSAB1 /// TPSB2 (11721975_s_at) / Fold change /veh TPSAB1 /// TPSB2 (11721975_s_at) / RFU GSTM3 (11746129_a_at) / Fold change /veh GSTM3 (11746129_a_at) / RFU IL23R (11737362_x_at) / Fold change /veh IL23R (11737362_x_at) / RFU TMEM51 (11727254_a_at) / Fold change /veh TMEM51 (11727254_a_at) / RFU PIWIL2 (11732686_x_at) / Fold change /veh PIWIL2 (11732686_x_at) / RFU ORM1 (11744905_x_at) / Fold change /veh ORM1 (11744905_x_at) / RFU CCDC152 (11743942_at) / Fold change /veh CCDC152 (11743942_at) / RFU ECM1 (11717891_a_at) / Fold change /veh ECM1 (11717891_a_at) / RFU IL23R (11748794_a_at) / Fold change /veh IL23R (11748794_a_at) / RFU TNFAIP8L3 (11732012_x_at) / Fold change /veh TNFAIP8L3 (11732012_x_at) / RFU MBOAT4 (11741988_at) / Fold change /veh MBOAT4 (11741988_at) / RFU 11764193_at / Fold change /veh 11764193_at / RFU TMEM53 (11763286_at) / Fold change /veh TMEM53 (11763286_at) / RFU MAGEB2 (11727129_at) / Fold change /veh MAGEB2 (11727129_at) / RFU TMEM200A (11744735_a_at) / Fold change /veh TMEM200A (11744735_a_at) / RFU CCDC152 (11751479_a_at) / Fold change /veh CCDC152 (11751479_a_at) / RFU FAM211A (11726209_a_at) / Fold change /veh FAM211A (11726209_a_at) / RFU RGS16 (11746705_a_at) / Fold change /veh RGS16 (11746705_a_at) / RFU VCAN (11755009_s_at) / Fold change /veh VCAN (11755009_s_at) / RFU RHOB (11743442_s_at) / Fold change /veh RHOB (11743442_s_at) / RFU RGS16 (11720943_a_at) / Fold change /veh RGS16 (11720943_a_at) / RFU RGS16 (11720944_at) / Fold change /veh RGS16 (11720944_at) / RFU, VPS4B / Fold change vs veh, VPS4B / RFU, CREB1 / Fold change vs veh, CREB1 / RFU, DNAJC13 / Fold change vs veh, DNAJC13 / RFU, GNAQ / Fold change vs veh, GNAQ / RFU, CDK5R1 / Fold change vs veh, CDK5R1 / RFU, ZRANB3 / Fold change vs veh, ZRANB3 / RFU, CUL4A / Fold change vs veh, CUL4A / RFU, CCNY / Fold change vs veh, CCNY / RFU, UFL1 / Fold change vs veh, UFL1 / RFU, COG3 / Fold change vs veh, COG3 / RFU, DIAPH2 / Fold change vs veh, DIAPH2 / RFU, SKA2 / Fold change vs veh, SKA2 / RFU, AFF3 / Fold change vs veh, AFF3 / RFU, LMF1 / Fold change vs veh, LMF1 / RFU, IPO11 / Fold change vs veh, IPO11 / RFU, DFFB / Fold change vs veh, DFFB / RFU, FOXP1 / Fold change vs veh, FOXP1 / RFU, CARD8 / Fold change vs veh, CARD8 / RFU, STRN3 / Fold change vs veh, STRN3 / RFU, ADK / Fold change vs veh, ADK / RFU, RASSF2 / Fold change vs veh, RASSF2 / RFU, WIPF1 / Fold change vs veh, WIPF1 / RFU, LARP1B / Fold change vs veh, LARP1B / RFU, RASA1 / Fold change vs veh, RASA1 / RFU, RB1 / Fold change vs veh, RB1 / RFU, PPFIA1 / Fold change vs veh, PPFIA1 / RFU, MAT2A / Fold change vs veh, MAT2A / RFU, CCT5 / Fold change vs veh, CCT5 / RFU, WDR92 / Fold change vs veh, WDR92 / RFU, CUX1 / Fold change vs veh, CUX1 / RFU, TTC7A / Fold change vs veh, TTC7A / RFU, TMEM135 / Fold change vs veh, TMEM135 / RFU, DEPTOR / Fold change vs veh, DEPTOR / RFU, CPM / Fold change vs veh, CPM / RFU, DNAJB6 / Fold change vs veh, DNAJB6 / RFU, CACNA2D3 / Fold change vs veh, CACNA2D3 / RFU, DTX4 / Fold change vs veh, DTX4 / RFU, TFCP2 / Fold change vs veh, TFCP2 / RFU, GMCL1 /// GMCL1P1 / Fold change vs veh, GMCL1 /// GMCL1P1 / RFU, AEBP2 / Fold change vs veh, AEBP2 / RFU, SNHG1 /// SNORD22 /// SNORD25 /// SNORD26 /// SNORD27 /// SNORD28 /// SNORD29 /// SNORD31 / Fold change vs veh, SNHG1 /// SNORD22 /// SNORD25 /// SNORD26 /// SNORD27 /// SNORD28 /// SNORD29 /// SNORD31 / Fold change (Aza/veh), C12orf56 (ProbeSet 11735607_a_at) / Fold change (ACY-1035/veh), C12orf56 (ProbeSet 11735607_a_at) / Fold change (Aza/veh), FGFR1OP (ProbeSet 11751329_s_at) / Fold change (ACY-1035/veh), FGFR1OP (ProbeSet 11751329_s_at) / Fold change (Aza/veh), VPS36 (ProbeSet 11739960_a_at) / Fold change (ACY-1035/veh), VPS36 (ProbeSet 11739960_a_at) / RFU SYPL1 (11715823_x_at) / Fold change /veh SYPL1 (11715823_x_at) / RFU IGFBP7 (11715501_s_at) / Fold change /veh IGFBP7 (11715501_s_at) / RFU REEP3 (11722064_at) / Fold change /veh REEP3 (11722064_at) / RFU IGLL1 (11728026_x_at) / Fold change /veh IGLL1 (11728026_x_at): dose or concentration left out as unconfirmed
Conditions: MV-4-11 cells, 48 hours

For `Nc1ccc(-c2cccs2)cc1NC(=O)c1ccc2c(c1)cc(C1CC1)n2CCN1CCOCC1` [ACY-1035], which “RFU TMEM53 (11763286_at)” value is on record?
The value was 16.39 RFU.
